Measurements published in patent US20110129467A1, “THERAPEUTIC COMBINATION COMPRISING AN AURORA KINASE INHIBITOR AND ANTIPROLIFERATIVE AGENTS” (NERVIANO MEDICAL SCIENCES S.R.L., priority 2008, published 2011).
Where two headings read alike, the source gives them in different places.

Legend:
[1] = system: DU145 prostate carcinoma cells; test: In vivo antitumor efficacy, DU145 prostate carcinoma subcutaneous xenograft in athymic mice; conditions: Compound 1 15 mg/kg ip BID, Bevacizumab 20 mg/kg ip days 9, 13, 17; for Time to reach 1 g / T-C: DU145 sc in athymic mice; for T-C: delay vs control to reach 1 g
Description: Balb, Nu\Nu male mice, from Harlan (Italy), were maintained in cages with paper filter cover, food and bedding sterilized and water acidified. 2.5×10^6 DU145 prostate carcinoma cells (from the American Type Culture Collection) were injected subcutaneously in athymic mice. […] The treatment started at day 9 after cell injection, when tumors were palpable with a tumor weight mean for all the groups of 0.15 g.
Bevacizumab was administered intraperitoneally in a volume of 10 ml/kg at the dose of 20 mg/kg on days 9, 13, 17 from the days of tumor cells injection. […] Tumor growth and body weight were measured every 3 days. Tumor growth was assessed by caliper. […] This delay (T-C value) was defined as the difference of time (in days) required for the treatment group (T) and the control group(C) tumors to reach a predetermined size (1 g). Toxicity was evaluated on the basis of body weight reduction.

[2] = system: DU145 prostate carcinoma cells; conditions: previously demonstrated (The Prostate 36: 1-10, 1998); cited from earlier work
[3] = system: HL-60 human acute myeloid leukaemia cells; conditions: HL-60 sc in SCID mice; for T-C: delay vs control to reach 1 g
Description: The treatment started 12 days later tumor cells injection when tumors were palpable.
When combined, Compound 1 was administered in the interval between the bortezomib treatments at days 13, 14, 15, 17, 18, 19, 21, 22, 23, 25, 26 and 27. […] Tumor growth was assessed by caliper.

[4] = system: HL-60 human acute myeloid leukaemia cells; conditions: HL-60 model; previously demonstrated; cited from earlier work
[5] = Bortezomib 1 mg/kg iv days 12, 16, 20, 24 (combination: + Compound 1 15 mg/kg ip)
[6] = Compound 1 15 mg/kg ip BID, Bortezomib 0.5 mg/kg iv days 12, 16, 20, 24

Row | Compound | Time to reach 1 g [1] [days] | T-C [1] [days] | Toxicity ([1]; evaluated on body weight reduction) | effect on angiogenesis and growth of the tumor model in vivo [2] | Time to reach 1 g [3, 5] [days] | Time to reach 1 g [3, 6] [days] | T-C [3, 5] [days] | T-C [3, 6] [days] | effect on growth of the tumor model in vivo [4]
1 | Bevacizumab: antibody to vascular endothelial growth factor; marketed as Avastin | 18.5 | 3.1 | 0/8 | inhibits angiogenesis and growth of the model in vivo |  |  |  |  | 
2 | CC(C)C[C@H](NC(=O)[C@H](Cc1ccccc1)NC(=O)c1cnccn1)B(O)O [Bortezomib] |  |  |  |  | 23.8 | 19 | 8.2 | 3.4 | 
3 | CO[C@@H](C(=O)N1Cc2[nH]nc(NC(=O)c3ccc(N4CCN(C)CC4)cc3)c2C1)c1ccccc1 [Compound 1, N-{5-[(2R)-2-methoxy-2-phenylethanoyl]-1,4,5,6-tetrahydropyrrolo[3,4-c]pyrazol-3-yl}-4-(4-methylpiperazin-1-yl)benzamide] | 23.9 | 8.5 |  |  |  | 24.7 |  | 9.1 | inhibits growth of the model in vivo
